# Measurements: patent US20120145955A1, “COMPOSITION OF HCFO-1233zd AND POLYOL BLENDS FOR USE IN POLYURETHANE FOAM” (Arkema Inc., priority 2009, published 2012)
# Like-named read-outs stand apart in the source and are kept apart here.
# Tests used:
# [1] = AMES testing (genotoxicity); type: cell-based; conditions: trans isomer of HCFO-1233zd compared with the cis isomer
# [2] = Solubility experiments: vapor pressure of blowing agent in polyol in a pressure vessel; type: physicochemical
# Experimental: The vapor pressure of a foam blowing agent in polyurethane materials was evaluated in an experimental apparatus consisting of a pressure vessel with magnetic stirring, a pressure transducer and a temperature transducer. The temperature inside the vessel was controlled within 0.1° C. and the pressure controlled to within 0.1%.
# Into the pressure vessel (volume about 100 ml), 50 g of polyol was loaded. The vessel was then placed under vacuum to remove air. The change of pressure in the metal cylinder was monitored to ensure that there were no leaks. The blowing agent was introduced into the vessel by the use of a specially designed gas syringe. The amount of blowing agent loaded was verified by measuring the weight of the syringe before and after introduction. The temperature of the vessel was maintained at 50° C. (above the boiling point of the blowing agents being tested) and the speed of the shaker was maintained at 300 rpm. The vapor pressure of the blowing agent was recorded as a function of the time. Sufficient time was allowed for the system to reach equilibrium. After reaching equilibrium, the amount of blowing agent dissolved in the polyol was calculated as the difference between the added blowing agent […] and the blowing agent present in the gas phase of the vessel.
# Then another small amount of blowing agent was added in the vessel. The procedure was repeated several times until the pressure in the vessel was equal to the liquid-gas equilibrium vapor pressure of the blowing agent at this temperature (maximum attainable pressure at temperatures below the critical temperature of the blowing agent).
# [3] = known to the people skilled in the art; cited from earlier work
smiles,measurement,setting,value
FC(F)(F)/C=C/Cl [E-HCFO-1233zd],genotoxicity in AMES testing,[1],significantly lower genotoxicity
same,area between the polyether polyol and polyester polyol curves (range of solubilities),"[2]; compared with HCFC141b and HFC245fa, 50° C.",significantly larger
same,solubility relative to current blowing agents,"[2]; polyether polyol and polyester polyol, 50° C.",solubility comparable to current blowing agents
same,solubility curves (vapor pressure versus part of blowing agent per 100 part of polyol by weight),"[2]; polyether polyol and polyester polyol, 50° C., FIG. 1",between those for HFC245fa and HCFC141b
"FC(F)(F)/C=C/Cl [HCFO-1233zd, trifluoro-monochloropropenes]",solubility in polyols,"[2]; different ratios of polyether polyols and polyester polyols, benchmarked against HCFC141b and HFC245fa",falls in between HFC245fa and HCFC141b
FC(F)CC(F)(F)F [HFC245fa],solubility in polyols,[3],relatively less soluble
